“Also recorded” adds a separate entry of the source. No end group written: not given here.
Experiments:
Piezo1 = test: Massive rotator cuff tear mouse model: Piezo1 immunohistochemistry; type: in vivo
Protocol: (§1) A massive rotator cuff tear (RCT) model was performed by surgical ligation of the supraspinatus and infraspinatus tendons of the right shoulder of 14-week-old C57Bl/6 male and female mice through a deltoid splitting approach. Mice were anesthetized with 2% isoflurane gas mixed with oxygen. A single dose of buprenorphine SR (0.5 mg/kg) was injected subcutaneously at the nape. The right shoulder was prepped using a chemical hair removal agent, followed by betadine solution for 2 minutes and a rinse with 70% ethanol. The remaining steps were performed under sterile technique. A #11 scalpel blade was used to sharply incise the skin and subcutaneous tissues in a longitudinal incision over the palpable border of the lateral shoulder. The deltoid fascia and muscle were sharply incised in line with the skin incision with care not to dissect distally along the humerus to protect the axillary nerve. […] Animals were monitored daily for 3 days post-operatively, and no adverse events were noted. […]
For Piezo1 immunohistochemistry, deparaffinized and rehydrated slides were incubated in citrate buffer (10 mM sodium citrate, 0.05% Tween-20, pH 6.0) for […] at 75° C. […] Chondrocyte Piezo1 protein expression was quantified by average threshold intensity of immunofluorescence by ImageJ analysis through raw intensity averaging. […]

C57Bl/6 male mice = test: Massive rotator cuff tear (RCT) mouse model: humeral head cartilage histology; type: in vivo
Protocol: as §1, with “nerve. A pair of forceps were then used to grasp the proximal humerus and pull laterally to place the glenohumeral joint on gentle tension. A 25G needle was passed under the supraspinatus and infraspinatus tendons.” for “nerve.”
Humeri were harvested and chondrocyte mechano-vulnerability was quantified before and after 2 mJ impact according to methods above. […]

CGRP^+ pain nerves = test: Bilateral ACL-injury mouse model: knee nerve innervation and CGRP+ pain nerves; type: in vivo
Source text: Some of the studies reported below involved a murine model of animals which were subjected to trauma by injuring an ACL (as an exemplar of injury to any of the four knee ligaments). Without wishing to be bound by theory, it is believed that injury to the ACL changes the mechanical loading on the joint, promoting imbalanced metabolism in articular cartilage, and promoting the development of post-traumatic OA, or “PTOA.” Animals were divided into four cohorts: the first group, the controls, were not subjected to trauma, the second group underwent bilateral ACL injury, but no further treatment, the third group underwent bilateral ACL injury, and was then administered saline solution at days 3, 10 and 17 post-injury, and the fourth group underwent bilateral ACL injury, and was then administered GsMTx4 peptide at days 3, 10 and 17 post-injury. The animals were evaluated by gait analysis, a cell vulnerability assay, and a histological evaluation/immunofluorescence assay. In one aspect, the assays compared the expression of Piezo1 and Piezo2 in chondrocytes from injured joints, from uninjured controls, and from injured joints injured and then treated with GsMTx4 and from joints that were injured and then treated only with saline solution. The study also looked at calcitonin gene-related peptide (“CGRP”)-containing (“CGRP^+”) nerve endings. CGRP^+ nerves have been identified as principal coordinators of thermal and mechanical sensitivity in various pain models. See, e.g., Powell, et al., Nat Commun 12, 5812 (2021); doi.org/10.1038/s41467-021-26100-6.

chondrocytes = test: Mechano-vulnerability (impact loading) assay on cartilage of treated ACL-injured mice; type: in vivo, mouse; conditions: ACL-I mice, 3 weeks post-ACL-I, versus saline-treated ACL-I mice
Source text: OA was induced by a bilateral anterior cruciate ligament-injury (ACL-I) in 8-week-old C57BL/6 mice. Piezo1-labeling intensity in articular chondrocytes and nerves in subchondral bone, the OA severity (OARSI score), the mechano-vulnerability of chondrocytes, and gait parameters was compared among four experimental groups-Control (uninjured), ACL-injured, ACL-injured with saline administration, and ACL-injured with GsMT4 treatment—at 3-weeks post-ACL-I.
FIG. 1E is a diagram showing impact loading applied to cartilage over a portion of a mouse bone as part of an assay for studying the resulting area of chondrocyte death, sometimes referred to a “mechano-death” or “mechano-vulnerability” assay. See, Kotelsky, et al., Osteoarthritis and Cartilage Open, 4 (1): 100227 (2022); doi.org/10.1016/j.ocarto. 2021.100227.
FIG. 2C presents two sets of two photos from animals that have undergone bilateral ACL injury. The animal in the photos in the top row was injected after the injury with saline solution (“ACLL+saline”), while the animal in the bottom row was injected at the same time points post-injury with GsMTx4 (“ACLI+GsMTx4”). The left photos show the amount of dead cells (in red, in the color original, compared to living cells, which have taken up a green label) and after application of a 1 mJ force. FIG. 2D presents a graph showing the results of the studies.

[1] = ACL-I mice, GsMTx4 post-injury, versus saline-treated ACL-I mice

Which results are given for “GsMTx4 (GCLEFWWKCNPNDDKCCRPKLKCSKLFKLCNFSF-NH2; ends and bridges not checked; listed as Grammostola spatulata)”?
humeral head chondrocyte Piezo1 protein expression versus contralateral control joint (Piezo1; RC ligation, subcutaneous twice weekly, 14 weeks post-operatively, p<0.05): significantly lower humeral head chondrocyte Piezo1 protein expression; Piezo1 expression in cells from RCT shoulders versus animals not treated with GsMTx4 (Piezo1; RCT, treated post-injury with GsMTx4): reduced expressed of Piezo1; average humeral head cartilage thickness (C57Bl/6 male mice; RC ligation, subcutaneous twice weekly, 14 weeks post-operatively, GsMTx4 versus saline or contralateral control joint): no difference in average humeral head cartilage thickness; cartilage degeneration of shoulder (C57Bl/6 male mice; RCT, treated post-injury, versus animals not treated post-injury with GsMTx4): reduced cartilage degeneration; CGRP^+ pain nerves / CGRP level in injured knee (CGRP^+ pain nerves; [1]): decreased CGRP^+ pain nerves; also recorded: lower levels of CGRP present; nerve innervation in the knee (CGRP^+ pain nerves; [1]): decreased nerve innervation in the knee; pain nerves in the meniscus of the injured joints (CGRP^+ pain nerves; bilateral ACL injury, versus no treatment or saline): reduced the increase of pain nerves in the meniscus; area of chondrocyte death by mechanical impact (chondrocytes): decreased area of chondrocyte death by impact; also recorded: decreased impact-induced mechanical-susceptibility
